From the OligoGym collection
After the bases stand the sugars from the 5' end (letter, count) and the backbone: PS all phosphorothioate, else s phosphorothioate and o phosphodiester by linkage. Methylation of C is not given here. e = 2'-O-(2-methoxyethyl) (MOE); k = constrained ethyl (cEt); d = 2'-deoxy (DNA); m = 2'-O-methyl

Target: HSD17B13
Conditions: ASO, HepaRG

Q: With “GCTAGTGCCAAACCAA (sugars kkdddddddddkekek, PS)” as the sequence, how does the target mRNA inhibition (1 µM) read?
A: The target mRNA inhibition was 62%.

Q: For “GCTCCATAATAATAGC (sugars kkdddddddddkekek, PS)”, which target mRNA inhibition (1 µM) is on record?
A: The target mRNA inhibition was 15%.

Q: GCTGAGAAGATCGGCT (sugars k3 d10 k3, PS) was tested. Which target mRNA inhibition (1 µM) did it give?
A: Its target mRNA inhibition is 10%.

Q: Which target mRNA inhibition (1 µM) does the source give for GCTGAGAGAGTATTTC (sugars k3 d10 k3, PS) here?
A: Its target mRNA inhibition is 51%.

Q: How did the target mRNA inhibition (1 µM) turn out when “GCTGCTAGTGCCAAAC (sugars k3 d1 m1 d8 k3, PS)” was run?
A: Its target mRNA inhibition is 39%.

Q: Which target mRNA inhibition (0.02 µM) does the source give for GCTGTAAGAGTCAGTA (sugars k3 d10 k3, PS) here?
A: Its target mRNA inhibition is 5%.

Q: What about the target mRNA inhibition (0.078 µM) of the same sequence?
A: The target mRNA inhibition was 0%.

Q: And the target mRNA inhibition (0.313 µM)?
A: The target mRNA inhibition was 2%.

Q: What about the target mRNA inhibition (1 µM) of the same sequence?
A: The target mRNA inhibition was 89%.

Q: What about the target mRNA inhibition (1.25 µM) of the same sequence?
A: Its target mRNA inhibition is 57%.

Q: And the target mRNA inhibition (5 µM)?
A: The target mRNA inhibition was 82%.

Q: How did the target mRNA inhibition (1 µM) turn out when GCTGTACAGTAGGCAG (sugars k3 d10 k3, PS) was run?
A: The target mRNA inhibition was 66%.

Q: For GCTTAAATGTTTAACC (sugars k3 d10 k3, PS), which target mRNA inhibition (1 µM) is on record?
A: The target mRNA inhibition was 67%.

Q: For GCTTAGTACCAAGACA (sugars k3 d10 k3, PS), which target mRNA inhibition (1 µM) is on record?
A: Its target mRNA inhibition is 62%.

Q: Which target mRNA inhibition (1 µM) does the source give for GCTTAGTGTAGAATTG (sugars k3 d10 k3, PS) here?
A: Its target mRNA inhibition is 16%.

Q: For GCTTATCGAGTTTAGC (sugars k3 d10 k3, PS), which target mRNA inhibition (1 µM) is on record?
A: The target mRNA inhibition was 17%.

Q: “GCTTTTGTCCACCTTT (sugars kkdddddddddkekek, PS)” was tested. Which target mRNA inhibition (0.02 µM) did it give?
A: Its target mRNA inhibition is 28%.

Q: And the target mRNA inhibition (0.078 µM)?
A: Its target mRNA inhibition is 25%.

Q: What about the target mRNA inhibition (0.313 µM) of the same sequence?
A: Its target mRNA inhibition is 45%.

Q: What about the target mRNA inhibition (1 µM) of the same sequence?
A: Its target mRNA inhibition is 75%.

Q: What about the target mRNA inhibition (1.25 µM) of the same sequence?
A: The target mRNA inhibition was 81%.

Q: And the target mRNA inhibition (5 µM)?
A: Its target mRNA inhibition is 87%.

Q: Which target mRNA inhibition (1 µM) does the source give for GGAAATATAGAGGGTC (sugars k3 d10 k3, PS) here?
A: Its target mRNA inhibition is 50%.

Q: With GGAAGATTAATCATAA (sugars k3 d10 k3, PS) as the sequence, how does the target mRNA inhibition (1 µM) read?
A: Its target mRNA inhibition is 32%.

Q: For GGAATGCTCATATTAA (sugars k3 d10 k3, PS), which target mRNA inhibition (1 µM) is on record?
A: The target mRNA inhibition was 19%.

Q: How did the target mRNA inhibition (1 µM) turn out when GGAGTATGACAACTGG (sugars k3 d10 k3, PS) was run?
A: The target mRNA inhibition was 28%.

Q: GGATACCTGAAAAGCC (sugars k3 d10 k3, PS) was tested. Which target mRNA inhibition (0.02 µM) did it give?
A: The target mRNA inhibition was 2%.

Q: What about the target mRNA inhibition (0.078 µM) of the same sequence?
A: The target mRNA inhibition was 0%.

Q: What about the target mRNA inhibition (0.313 µM) of the same sequence?
A: Its target mRNA inhibition is 38%.

Q: What about the target mRNA inhibition (1 µM) of the same sequence?
A: Its target mRNA inhibition is 68%.

Q: And the target mRNA inhibition (1.25 µM)?
A: Its target mRNA inhibition is 69%.

Q: And the target mRNA inhibition (5 µM)?
A: The target mRNA inhibition was 77%.

Q: How did the target mRNA inhibition (1 µM) turn out when GGATAGAGCACATGGC (sugars k3 d10 k3, PS) was run?
A: The target mRNA inhibition was 33%.

Q: GGATGATGTTCATGGC (sugars k3 d10 k3, PS) was tested. Which target mRNA inhibition (0.02 µM) did it give?
A: Its target mRNA inhibition is 4%.

Q: And the target mRNA inhibition (0.078 µM)?
A: Its target mRNA inhibition is 40%.

Q: What about the target mRNA inhibition (0.313 µM) of the same sequence?
A: The target mRNA inhibition was 75%.

Q: And the target mRNA inhibition (1 µM)?
A: The target mRNA inhibition was 82%.

Q: And the target mRNA inhibition (1.25 µM)?
A: Its target mRNA inhibition is 80%.

Q: What about the target mRNA inhibition (5 µM) of the same sequence?
A: The target mRNA inhibition was 76%.

Q: GGCCAAGGGAACACTG (sugars k3 d10 k3, PS) was tested. Which target mRNA inhibition (1 µM) did it give?
A: The target mRNA inhibition was 36%.

Q: How did the target mRNA inhibition (1 µM) turn out when GGCTAAACCCTGGAGC (sugars k3 d10 k3, PS) was run?
A: The target mRNA inhibition was 36%.

Q: GGCTACTTTCAAACCT (sugars k3 d10 k3, PS) was tested. Which target mRNA inhibition (1 µM) did it give?
A: The target mRNA inhibition was 54%.

Q: GGCTGGATATACTGTC (sugars k3 d10 k3, PS) was tested. Which target mRNA inhibition (1 µM) did it give?
A: Its target mRNA inhibition is 18%.

Q: With GGGAAAAAGTGTGTTC (sugars k3 d10 k3, PS) as the sequence, how does the target mRNA inhibition (1 µM) read?
A: Its target mRNA inhibition is 20%.

Q: With GGGAAAGAAGTCTCCT (sugars k3 d10 k3, PS) as the sequence, how does the target mRNA inhibition (1 µM) read?
A: The target mRNA inhibition was 13%.

Q: Which target mRNA inhibition (1 µM) does the source give for “GGGAGGTAGCTTTTGT (sugars k3 d9 k3 e1, PS)” here?
A: The target mRNA inhibition was 40%.

Q: Which target mRNA inhibition (1 µM) does the source give for GGGAGTCGGATTATTT (sugars k3 d10 k3, PS) here?
A: Its target mRNA inhibition is 33%.

Q: For GGGTCCATTGTTTCTT (sugars k3 d10 k3, PS), which target mRNA inhibition (1 µM) is on record?
A: The target mRNA inhibition was 21%.

Q: Which target mRNA inhibition (1 µM) does the source give for GGTAACGGTGATCAAA (sugars k3 d10 k3, PS) here?
A: Its target mRNA inhibition is 51%.

Q: GGTAAGCCCCATGCCA (sugars k3 d10 k3, PS) was tested. Which target mRNA inhibition (1 µM) did it give?
A: The target mRNA inhibition was 38%.

Q: Which target mRNA inhibition (1 µM) does the source give for GGTAAGTATTCCATCT (sugars k3 d10 k3, PS) here?
A: Its target mRNA inhibition is 12%.
